The values below are quoted from earlier work in patent US10138195B2, “Organic compounds” (Givaudan, S. A., priority 2014, dated 2018).

Like-named read-outs stand apart in the source and are kept apart here.

In data set [1] the test system is glucose synthesis and fatty acid synthesis. The following applies: in vitro (McCune et al).
The subject of the next data set is male rats. The following applies: male rats (Hunter et al.; Cagen et al.).
The conditions of data set [2]: rats.
For data set [3] the following is noted: dogs.
Data set [4] relates to reproductive organs of male dogs.
The test system of data set [5] is reproductive organs of male rats.

Turning to `CC(C)(C)c1ccc(C(=O)O)cc1` [tert-butyl benzoic acid], the “Effect on glucose synthesis and fatty acid synthesis” value in [1] was “inhibit glucose synthesis and fatty acid synthesis”. Also, the Testicular effects result with male rats is recorded as “cause testicular effects”.
Consider `CC(C=O)Cc1ccc(C(C)(C)C)cc1` (stereo not drawn) [Lilial™, 3-(4-tert-butylphenyl)-2-methylpropanal], for which the Enzymatic degradation product result was “enzymatically degraded in rats and dogs to tert-butyl benzoic acid (t-BBA)” in data set [2]; “enzymatically degraded in rats and dogs to tert-butyl benzoic acid (t-BBA)” in data set [3]. Besides, the “Effects on the reproductive organs” value in data set [4] and in [5] was “toxic effects on the reproductive organs” in each case. In addition, the Effects in studies entry with mice, in the data set on guinea-pigs and in the data set on primates was “No effects” each time.
